Tests used:
[1] = Antioxidant activity of active ingredients alone and combined (FIG. 1); details: for antioxidant activity relative to vehicle: ingredient alone, control = vehicle (mixture of ethanol and macrogol); for synergistic effect on antioxidant activity: ingredients combined; for antioxidant activity when combined with Vitamin C and Vitamin E: polyphenol derivatives combined with Vitamin C and Vitamin E
[2] = cited from earlier work
[3] = gastrointestinal tract and skin; cited from earlier work
[4] = test system: human polymorphonuclear leukocytes; details: cited from earlier work
[5] = test system: seasonal allergic rhinoconjunctivitis; details: oral supplementation; cited from earlier work
[6] = test system: human keratinocyte cell lines; details: cited from earlier work
[7] = test system: mild atopic dermatitis; details: 0.3% rosmarinic acid emulsion, topical application; cited from earlier work
[8] = phospholipidic membranes; cited from earlier work
[9] = test system: human skin; details: cited from earlier work

O=C1O[C@H]([C@@H](O)CO)C(O)=C1O [Vitamin C, ascorbic acid]
antioxidant activity relative to vehicle [1]: more than twice as much antioxidant activity as the vehicle | synergistic effect on antioxidant activity [1]: synergistic effect

COc1cc(/C=C/C(=O)O)ccc1O [ferulic acid, Ferulic acid]
synergistic effect on antioxidant activity [1]: synergistic effect | antioxidant activity when combined with Vitamin C and Vitamin E [1]: stronger antioxidant activity (more than twice) | behaviour at acidic pH ([2]; acidic pH): precipitates into crystals

O=C(/C=C/c1ccc(O)c(O)c1)O[C@H](Cc1ccc(O)c(O)c1)C(=O)O [rosmarinic acid, alpha-o-caffeoyl-3,4-dihydroxyphenyl lactic acid]
antioxidant activity when combined with Vitamin C and Vitamin E [1]: stronger antioxidant activity (more than twice) | absorption [3]: well absorbed through the gastrointestinal tract and the skin | leukotriene B4 production [4]: reduce leukotriene B4 production | prostaglandin E2 production [4]: augment prostaglandin E2 production | treatment of seasonal allergic rhinoconjunctivitis [5]: effective treatment for seasonal allergic rhinoconjunctivitis | photoprotective effect against UVA-induced alterations [6]: photoprotective effects against alterations induced by UVA exposure | symptoms of mild atopic dermatitis [7]: improves some symptoms of the disease including the erythema, transepidermal water loss, xerosis and pruritus

O=C(O)/C=C/c1ccc(O)c(O)c1 [caffeic acid, 3,4-dihydroxycinnamic acid]
antioxidant activity when combined with Vitamin C and Vitamin E [1]: stronger antioxidant activity (more than twice) | protection from UV-induced peroxidation [8]: protect phospholipidic membranes from UV-induced peroxidation | protection from UVB-induced erythema [9]: protect human skin from UVB-induced erythema

O=C(CCc1ccc(O)cc1)c1c(O)cc(O)cc1O [phloretin, Phloretin]
synergistic effect on antioxidant activity [1]: synergistic effect | antioxidant activity when combined with Vitamin C and Vitamin E [1]: stronger antioxidant activity (more than twice) | solubility in ethanol [2]: very soluble in ethanol | solubility in water [2]: insoluble in water

Vitamin E
antioxidant activity relative to vehicle [1]: more than twice as much antioxidant activity as the vehicle

Reference: patent US9241887B2, “Systems and methods for skin rejuvenation” (Sesvalia USA, LLC, priority 2009, dated 2016)
